Where “and” joins values, the source holds several entries; their conditions need not be identical. Equal values may be shown once. Read-outs that look alike come from different tables or passages of the source.
Key:
AMPA receptors [1] = assay: AMPA ES Cell FLIPR Screen, G7330A (single dose % effect); type: cell-based, murine; settings: Dose 32.0 uM; mean (range and n in cells below); ES cell-derived neurons, 32 uM AMPA challenge; negative control AMPA alone, positive control AMPA plus cyclothiazide
Procedure: (§1) The murine ES cell line used was E14-Sx1-16C, which has a targeted mutation in the Sox1 gene, a neuroectodermal marker, that offers G418 resistance when the Sox1 gene is expressed (Stem Cell Sciences). ES cells were maintained undifferentiated as previously described (Roach). […] ES cells were plated on gelatin-coated dishes (BD Biosciences), the media was changed daily and the cells were dissociated with 0.05% Trypsin EDTA (Invitrogen) every other day.
(§2) Embryoid Body Formation: Prior to embryoid body (EB) formation the ES cells were weaned from FBS onto Knockout Serum Replacement (KSR) (Invitrogen). To form EBs, ES cells were dissociated into a single cell suspension then 3×10^6 cells were plated in bacteriology dishes (Nunc 4014) and grown as a suspension culture in NeuroEB-I medium that consisted of Knockout™ D-MEM (Invitrogen), supplemented with 10% KSR (Invitrogen), 0.2 mM L-Glutamine (Invitrogen), 0.1 mM MEM non-essential amino acids (Invitrogen), 30 μg/ml Gentamicin (Invitrogen), 1000 u/ml ESGRO (Chemicon), 0.1 mM 2-Mercaptoethanl (Sigma) and 150 ng/ml Transferrin (Invitrogen). The plates were put on a Stovall Belly Button shaker in an atmospheric oxygen incubator. The media was changed on day 2 of EB formation with NeuroEB-I and on day 4 with NeuroEB-II (NeuroEB-I plus 1 μg/ml mNoggin [R&D Systems]).
(§3) Neuronal Precursor Selection and Expansion: On day 5 of EB formation, EBs were dissociated with 0.05% Trypsin EDTA, and 4×10^6 cells/100 mm dish were plated on Laminin coated tissue culture dishes in NeuroII-G418 medium that consisted of a base medium of a 1:1 mixture of D-MEM/F12 supplemented with N2 supplements and NeuroBasal Medium supplemented with B27 supplement and 0.1 mM L-Glutamine (all from Invitrogen). The base medium was then supplemented with 10 ng/ml bFGF (Invitrogen), 1 μg/ml mNoggin, 500 ng/ml SHH-N, 100 ng/ml FGF-8b (R&D Systems), 1 μg/ml Laminin and 200 μg/ml G418 (Invitrogen) for selection of neuronal precursors expressing Sox-1. The plates were put in an incubator that contained 2% Oxygen and were maintained in these conditions. During the 6-day selection period, the NeuroII media was changed daily. On day 6, the surviving neuronal precursor foci were dissociated with 0.05% Trypsin EDTA and the cells were plated at a density of 1.5×10^6 cells/100 mm Laminin coated dish in NeuroII-G418 medium. The cells were dissociated every other day for expansion, and prepared for Cryopreservation at passage 3 or 4. The cryopreservation medium contained 50% KSR, 10% Dimethyl Sulfoxide (DMSO) (Sigma) and 40% NeuroI-G418I medium. Neuronas precursors were crypreserved at a concentration of 4×10^6cells/ml and 1 ml/cryovial in a controlled rate freezer overnight then transferred to an ultra-low freezer or liquid nitrogen for long-term storage,
(§4) Neuronal Differentiation: Cryopreserved ES cell-derived neuronal precursors were thawed by the rapid thaw method in a 37-degree water-bath. The cells were transferred from the cryovial to a 100 mm Laminin coated tissue culture dish that already contained NeuroII-G418 that had been equilibrated in a 2% Oxygen incubator. The media was changed with fresh NeuroII-G418 the next day. The cells were dissociated every other day as described above for expansion to generate enough cells to plate for the screen. For the screen, the cells were plated into 384-well poly-d-lysine coated tissue culture dishes (BD Biosciences) by the automated SelecT at a cell density of 6K cells/well in differentiation medium NeuroIII that contained a 4:1 ratio of the NeuroBasalMedium/B27:D-MEM/F12/N2 supplemented with 1 μM cAMP (Sigma), 200 μM Ascorbic Acid (Sigma), 1 μg/ml Laminin (Invitrogen) and 10 ng/ml BDNF (R&D Systems). The plates were put in an incubator with 2% Oxygen and allowed to complete the differentiation process for 7 days. The cells could then be used over a 5-day period for the high throughput screen.
(§5) Procedure for AMPA ES Cell FLIPR Screen […]

AMPA receptors [2] = assay: AMPA ES Cell FLIPR Screen, G7330B (EC50 and % effect); type: cell-based, murine; settings: for EC50: ES cell-derived neurons, 32 uM AMPA challenge
Procedure: as §1, §2, §3, §4, §5

[3] = Dose 32.0 uM, individual determinations
[4] = individual determinations, read-out: G7330B (U): EC50
[5] = mean of individual determinations (range and n in cells below), read-out: G7330B mean EC50
[6] = Dose 31.6 uM, individual determinations

| SMILES | G7330A: % Effect (AMPA receptors [1]) [%] | G7330B (U): % Effect (AMPA receptors [2]; [3]) | EC50 (AMPA receptors [2]; [4]) | EC50 (AMPA receptors [2]; [5]) [µM] | G7330B (U): % Effect (AMPA receptors [2]; [6]) |
| --- | --- | --- | --- | --- | --- |
| CCS(=O)(=O)N[C@@H]1CNCC[C@H]1c1ccc(-c2ccccc2)cc1 (relative stereo) [Example 9, Ethanesulfonic acid (trans-4-biphenyl-4-yl-piperidin-3-yl)-amide] | 59.1 | 73.4% and 60.8% and 66.9% | > 32 µM | > 32 | – |
| CCS(=O)(=O)N[C@@H]1CNCC[C@@H]1c1ccc(-c2ccccc2)cc1 (relative stereo) [Example 11, Ethanesulfonic acid (cis-4-biphenyl-4-yl-piperidin-3-yl)-amide] | 2.34 | 1.55% and 3.14% and 2.25% and 2.45% | – | – | – |
| CS(=O)(=O)N[C@@H]1CNCC[C@H]1c1ccc(-c2ccccc2)cc1 (relative stereo) [Example 8, N-(trans-4-Biphenyl-4-yl-piperidin-3-yl)-methanesulfonamide] | 56.3 | 62.1% and 46.9% and 54.7% and 34.7% and 36.6% and 38.0% | > 32 µM | > 32 | – |
| CC(C)S(=O)(=O)N[C@@H]1CNCC[C@H]1c1ccc(-c2ccccc2)cc1 (relative stereo) [Example 1, propane-2-sulfonic acid (trans-4-biphenyl-4-yl-piperidin-3-yl)-amide] | 87.1 | 86.8% and 115% and 132% and 92.5% and 85.0% | 16.8 µM and 11.1 µM and 12.5 µM | 13.2 | – |
| O=S(=O)(CC(F)(F)F)NC1CNCCC1c1ccc(-c2ccccc2)cc1 (stereo not drawn) [Example 13, 2,2,2-Trifluoro-ethanesulfonic acid(trans-4-biphenyl-4-yl-piperidin-3-yl)-amide] | 43.7 | 27.9% and 46.2% and 59.8% and 48.9% and 30.2% and 28.1% | > 32 µM | > 32 | – |
| CC(C)S(=O)(=O)N[C@@H]1CN(C)CC[C@H]1c1ccc(-c2ccccc2)cc1 (relative stereo) [Example 2, propane-2-sulfonic acid (trans-4-biphenyl-4-yl-1-methyl-piperidin-3-yl)-amide] | 112 | 127% and 141% and 134% and 142% and 151% and 173% and 180% | 4.43 µM and 5.97 µM and 3.78 µM and 8.04 µM | 5.32 | – |
| CCCS(=O)(=O)N[C@@H]1CNCC[C@H]1c1ccc(-c2ccccc2)cc1 (relative stereo) [Example 10, Propane-1-sulfonic acid (trans-4-biphenyl-4-yl-piperidin-3-yl)-amide] | 11.2 | 23.4% and 19.5% and 18.5% and 5.64% and 6.55% and 7.27% | > 32 µM | > 32 | – |
| CC(=O)N1CCC(NS(=O)(=O)C(C)C)C(c2ccc(-c3ccccc3)cc2)C1 (stereo not drawn) [Example 27, propane-2-sulfonic acid(trans-1-acetyl-3-biphenyl-4-yl-piperidin-4-yl)-amide] | – | 136% and 134% and 127% | 6.92 µM | 6.92 | – |
| CC(C)S(=O)(=O)N[C@@H]1COCC[C@H]1c1ccc(-c2ccccc2C#N)cc1 [Example 34, Propane-2-sulfonic acid[trans-4-(2′-cyano-biphenyl-4-yl)-tetrahydro-pyran-3-yl]-amide] | – | – | 1.25 µM | 1.25 | 137% |
| CC(C)S(=O)(=O)N[C@@H]1CN(C)CC[C@H]1c1ccc(-c2ccccc2)cc1 [Example 4, Propane-2-sulfonic acid ((3S,4S)-4-biphenyl-4-yl-1-methyl-piperidin-3-yl)-amide] | – | 4.29% and 2.21% and 2.27% and 2.45% and 2.50% and 6.32% and 2.96% and 5.62% and 0.525% | > 32 µM | > 32 | – |
| CC(C)S(=O)(=O)NC1CCOCC1c1ccc(-c2ccccc2)cc1 (stereo not drawn) [Example 15, Propane-2-sulfonic acid(trans-3-biphenyl-4-yl-tetrahydro-pyran-4-yl)-amide] | – | 108% and 109% and 101% | 2.84 µM and 3.14 µM and 5.42 µM | 3.64 | – |
| CC(C)S(=O)(=O)NC1CCNCC1c1ccc(-c2ccc(C#N)cc2)cc1 (stereo not drawn) [Example 19, Propane-2-sulfonic acid[trans-3-(4′-cyano-biphenyl-4-yl)-piperidin-4-yl]-amide] | – | 6.07% and 7.12% and 6.19% | > 32 µM | > 32 | – |
| CC(=O)N1CC[C@@H](NS(=O)(=O)C(C)C)[C@H](c2ccc(NC(=O)c3ccccc3)cc2)C1 (relative stereo) [Example 39, N-{4-[trans-1-Acetyl-4-(propane-2-sulfonylamino)-piperidin-3-yl]-phenyl}-benzamide] | – | – | 20.2 µM | 20.2 | 145% and 142% |
| CC(C)S(=O)(=O)NC1CCNCC1c1ccc(-c2ccccc2C#N)cc1 (stereo not drawn) [Example 20, Propane-2-sulfonic acid[trans-3-(2′-cyano-biphenyl-4-yl)-piperidin-4-yl]-amide] | – | 39.9% and 48.6% and 44.4% | > 32 µM | > 32 | – |
| CC(C)S(=O)(=O)NC1COCCC1c1ccc(-c2ccc(F)cc2)cc1 (stereo not drawn) [Example 32, Propane-2-sulfonic acid[trans-4-(4′-fluoro-biphenyl-4-yl)-tetrahydro-pyran-3-yl]-amide] | – | – | 2.57 µM | 2.57 | 120% and 127% and 115% |
| CC(=O)N1CC[C@@H](NS(=O)(=O)C(C)C)[C@H](c2ccc(NC(=O)c3cc(F)cc(F)c3)cc2)C1 (relative stereo) [Example 40, N-{4-[trans-1-Acetyl-4-(propane-2-sulfonylamino)-piperidin-3-yl]-phenyl}-3,5-difluoro-benzamide] | – | – | 11.7 µM | 11.7 | 152% and 179% and 176% |
| CC(C)S(=O)(=O)NC1COCCC1(O)c1ccc(-c2ccccc2)cc1 [Example 42, Propane-2-sulfonic acid((3R,4S)-rel-4-biphenyl-4-yl-4-hydroxy-tetrahydro-pyran-3-yl)-amide] | – | – | 11.9 µM | 11.9 | 145% and 142% and 152% |
| CC(C)S(=O)(=O)NC1CCNCC1c1ccc(-c2cc(Cl)ccc2Cl)cc1 (stereo not drawn) [Example 23, Propane-2-sulfonic acid[trans-3-(2′,5′-dichloro-biphenyl-4-yl)-piperidin-4-yl)]-amide] | – | 10.1% and 9.71% and 6.91% | > 32 µM | > 32 | – |
| CC(C)S(=O)(=O)N[C@@H]1COCC[C@H]1c1ccc(-c2ccc(S(C)(=O)=O)cc2)cc1 [Example 37, Propane-2-sulfonic acid[trans-4-(4′-methanesulfonyl-biphenyl-4-yl)-tetrahydro-pyran-3-yl]-amide] | – | – | > 10 µM | > 10 | – |
| CC(=O)N1CCC(NS(=O)(=O)C(C)C)C(c2ccc(-c3ccccc3C#N)cc2)C1 (stereo not drawn) [Example 29, Propane-2-sulfonic acid[trans-1-acetyl-3-(2′-cyano-biphenyl-4-yl)-piperidin-4-yl]-amide] | – | – | 1.73 µM and 1.44 µM and 2.16 µM and 1.96 µM and 1.28 µM and 1.51 µM and 2.74 µM and 2.29 µM and 3.61 µM and 3.13 µM | 2.07 | 201% and 204% and 155% (2×) and 159% and 194% and 364% and 391% and 363% and 195% (3×) and 187% and 150% and 151% and 202% |

Reference: US20100035865A1, “Sulfonamides and Pharmaceutical Compositions Thereof” (PFIZER INC, priority 2007, published 2010)
